≈ marks a conversion by molar mass, not a printed value. Where two headings read alike, the source gives them in different places.
Key:
[1] = cited from earlier work; for log P: no own measurement; for Log P of 2nd API drug: table of exemplary 2nd API drugs
[2] = Solubility of DIM in individual excipients (incremental addition, microscopic observation); format: physicochemical
Experimental: The first step in this development process was the testing of a variety of excipients chosen as potentially active in solubilizing DIM. […] The method involved weighing of approximately 2 grams of each of the liquid excipients into a small vial. Subsequently, a small amount of DIM was added and the mixture was shaken.
The method involved weighing of approximately 2 grams of each of the liquid excipients into a small vial. Subsequently, a small amount of DIM was added and the mixture was shaken. […] Continued testing of acceptable oil solvents for, e.g., nutritional supplement, self-emulsifying formulations using DIM as a representative DIM-related indole active ingredient included testing of the following oils: […]

[3] = Particle size after dispersion and spontaneous emulsion formation in water (laser light scattering); format: physicochemical; conditions: Malvern Mastersizer, DIM as supplied by BioResponse
Experimental: Each of the formulations were tested by dispersing approximately 1 gram of the candidate formulation in 200 mL of deionized water at approximately 37° C. with slow stirring of a magnetic spin bar in a 1 L beaker. Within five minutes of the addition, sufficient mixture was added to a Malvern Mastersizer dynamic laser light scattering instrument to satisfy the obscuration of the laser beams needed for measurement.
Some of the formulations were formulated with and without Soluplus and with and without phosphatidyl choline-rich isolates from lecithin. The formulations were tested by dispersing approximately 1 gram of the candidate formulation in 200 mL of deionized water at approximately 37° C. with slow stirring of a magnetic spin bar in a 1 L beaker. Within five minutes of the addition, sufficient mixture was added to a Malvern Mastersizer dynamic laser light scattering instrument to satisfy the obscuration of the laser beams needed for measurement.
The dispersions of Formulations R and T were tested for particle size by laser diffraction following dispersion and spontaneous emulsion formation in water. […] The particle size determined is expressed as diameter in microns (μ) in the following chart, and comparison is made to other nutritional and pharmaceutical formulations described herein: […]

[4] = Experimental log P of DIM (octanol / aqueous shake-flask, HPLC); format: physicochemical; conditions: octanol / aqueous media (separate shake-flask solubilities); from octanol and aqueous shake-flask results; read-out: Experimental log P Determination
Experimental: (§1) In directly determining the solubility of DIM the shake-flask method for determination of maximum solubility in aqueous media was utilized. The solubility was determined as described by Lindenberg et al., 2004, Eur J Pharm Biopharm. 58(2):265-78. The drug was weighed in excess of its expected solubility in Uniprep® vials equipped with a 0.45-μm membrane filter, and 2 ml of Milli-Q water, 0.01N HCL (pH 2.0), or phosphate buffer (pH 7.4) (USP) was added into the vial. The vials were incubated at 37±0.5° C. while shaking on a “Polymax 1040” orbital shaker (Heidolph, Schwabach). The samples of the solutions were taken after 4 or 24 hours by pressing the Uniprep® plunger down, diluted as appropriate, and the concentration of DIM was analyzed by HPLC, as described below. The measurements were done in triplicate. The maximum concentration of DIM in aqueous media used in this study was 0.6 μg/ml. The solubility or stability was not influenced by pH and was similar in water, 0.01N HCl or PBS (pH 7.4).

[5] = Intra-individual comparison of DIM plasma levels, one adult subject; format: in vivo; conditions: human, same adult subject, 300 mg oral
Experimental: Repeated single-use of 300 mg oral doses of DIM in different DIM formulations was conducted. Absorption studies using the same adult subject on separate test days were performed. This allowed comparison of DIM absorption and Plasma Pharmacokinetics through comparison of DIM plasma levels measured following administration of unformulated crystalline DIM, following administration of absorption-enhanced, microencapsulated DIM (BR-DIM), following administration of DIM SMEDDS Formulation “D” without Poloxamer 124, and following administration of DIM SMEDDS Formulation “G” with Poloxamer 124, to the human subject. The same oral administration and timed plasma sampling protocol was used on different study days, separated by at least 2 weeks. Plasma level results for each time point are presented in the following chart.

[6] = Single dose human oral bioavailability study (plasma DIM by LC-MS/MS); format: in vivo; conditions: both sexes
Experimental: Study Design: Single Center, Single-Blind, Single Dose, Oral Bioavailability Study, with Subject Crossover.
In Part I of the Study, a treatment group was administered a 300 mg dose of DIM from BR-DIM or a 300 mg dose of DIM from crystalline DIM on the first study day, followed by crossover to the other DIM formulation on the second study day, at least 14 days following the first treatment. 3 subjects were given crystalline DIM, 4 subjects were given BR-DIM.
In Part II of the Study, five individuals, four of whom participated in Part I of the Study, were administered a 300 mg dose of DIM from DIM SMEDDS Formulation D. Testing of DIM SMEDDS formula D took place on one day with 5 subjects. The subjects were all healthy, adult volunteers, both male and female, not consuming DIM containing supplements and in a fasting state on study days. Volunteers agreed not to consume cruciferous vegetable for one week prior to study days. Study groups consisted of 3, 4, or 5 individuals.
A baseline blood specimen was collected. For Part I of the Study, subjects ingested matching, opaque gelatin capsules containing either crystalline DIM (300 mg) or BR-DIM providing 300 mg DIM. Then, the subjects provided 8 cc samples of blood was collected at Baseline, and 1 hr, 2 hr, 3 hr, 4 hr, and 6 hr after administration of each of the formulations. A standard small meal was given at 4 hrs.
A baseline blood specimen was collected. Subjects ingested opaque gelatin capsules containing SEDDS DIM formulation (in particular, Formulation D described above) providing 300 mg dissolved DIM. The DIM SMEDDS formulation was provided in 3 hard gelatin capsules each containing 100 mg of DIM. Subsequently, 8 cc samples of blood were obtained and 30 cc samples of urine will be obtained according to the following chart. Blood was collected at Baseline, and 1 hr, 2 hr, 3 hr, 4 hr, and 6 hr after administration of the drug. A standard small meal was given at 4 hrs.
Blood sample handling: Within 15 minutes, plasma was centrifuged and frozen, stored on dry ice, then stored at minus 80 until assayed.
Pharmacokinetic evaluation was performed for all subjects. Blood samples (˜8 ml for each) were collected at 0 (baseline), 1, 2, 3, 4, and 6 hours after the oral administration of the dose of DIM, BR-DIM, or DIM SMEDDS formulation (i.e., Formulation D described above). Within 15 minutes of the collection, the blood samples were centrifuged at 4° C., at 2000 g for 10 minutes, and plasma was collected immediately after centrifugation and transferred to the screw-cap polypropylene cryogenic tubes. The plasma samples were stored at −80° C. until analysis.
The concentrations of DIM in human plasma samples were determined by a validated high-performance liquid chromatography with tandem mass spectrometry (LC-MS/MS) method. Briefly, to 50 μl human plasma, 100 μl of 2% formic acid in methanol (containing 1 μg/mL internal standard zileuton) was added to precipitate proteins. The mixture was vortex-mixed for 1 minute, and centrifuged at 14,000 g at 4° C. for 10 minutes. The supernatant was collected and 10 μl was injected into the LC-MS/MS system. Chromatographic analysis was performed using a Waters model 2690 separation system (Milford, Mass., USA). The analytes were separated on a Waters X-Terra MS column (150 mm×2.1 mm i.d.) using a mobile phase consisting of methanol/0.45% formic acid (70:30, v/v), and isocratic flow at 0.2 mL/min. The analytes were monitored by a Waters Micromass triple quadrupole mass spectrometer (Milford, Mass., USA) using an electrospray probe in the positive ionization mode operating at a cone voltage of 23V for DIM and 13V for the internal standard zileuton. Samples were introduced into the ionization source through a heated nebulized probe (350° C.). The collision energy was set at 30 eV and 9 eV for DIM and zileuton, respectively. The transitions at 129.9>76.8 and 237.1>161.1 were monitored for DIM and zileuton, respectively. […]

[7] = Shake-flask determination of maximum solubility of DIM; format: physicochemical; conditions: for solubility: 37 °C, thermodynamic from solid, read-out: maximal solubility
Experimental: as §1

[8] = healthy humans, single oral dose 300 mg DIM, averaged

CC(O)(CS(=O)(=O)c1ccc(F)cc1)C(=O)Nc1ccc(C#N)c(C(F)(F)F)c1 (centres unmarked) [Biculatamide, Bicalutamide]
log P [1]: 4.94

c1ccc2c(Cc3c[nH]c4ccccc34)c[nH]c2c1 [DIM, 3,3′-diindolylmethane]
DIM Solubility % ([2]; in Black Cumin oil): 2% | DIM Solubility ([2]; in Capryol 90 (Propylene glycol monocaprylate)): 7% | DIM Solubility ([2]; in Capryol PGMC (Propylene glycol monocaprylate)): 8% | DIM Solubility ([2]; in Crodasol HS-HP (monoesters and diesters of 12-hydroxystearic acid and macrogols)): 14% | DIM Solubility ([2]; in Gelucire 44/14 (Lauroyl polyoxyl-32 glycerides)): 19% | DIM Solubility ([2]; in Labrafac AC WL1349 (Medium-chain triglycerides)): 3% | DIM Solubility ([2]; in Labrafac PG (Propylene glycol di-caprylate)): 4.5%^ | DIM Solubility ([2]; in Labrafil M1944CS (Oleoyl polyoxyl-6 glycerides)): 5% | DIM Solubility ([2]; in Labrasol ALF (Caprylocaproyl polyoxyl-8 glycerides)): 25% | DIM Solubility ([2]; in Lauroylglycol 90 (Propylene glycol monolaurate)): 3% | DIM Solubility ([2]; in Maisine 35-1 (Glyceryl monolinoleate)): 2% | DIM Solubility ([2]; in Peceol (Glycerol monooleate)): 2% | DIM Solubility ([2]; in Peppermint oil): 4% | DIM Solubility ([2]; in Plurol Oleique (Glycerol mono/di-oleate)): 5% | DIM Solubility ([2]; in Polysorbate 80): 12% | DIM Solubility ([2]; in Propylene glycol): 2% | DIM Solubility % ([2]; in Rosemary Oil): 6% | DIM Solubility ([2]; in Transcutol (Diethylene glycol monoethyl ether)): >25% | ability of oil to dissolve DIM ([2]; olive oil or sunflower oil): very low ability to dissolve DIM | Particle Size Diameter after Dispersion in Water (nm) [3]: 3,010^1^ nm | logP [4]: 3.58 | AUC [5]: 17 ng·h/mL | Cmax [5]: 6.8 ng/mL | concentration at 0 h ([5]; time 0 hr, read-out: Plasma level of DIM): 0 ng/mL | concentration at 1 h ([5]; time 1 hr, read-out: Plasma level of DIM): 4.5 ng/mL | concentration at 2 h ([5]; time 2 hr, read-out: Plasma level of DIM): 6.8 ng/mL | concentration at 3 h ([5]; time 3 hr, read-out: Plasma level of DIM): 4.7 ng/mL | concentration at 4 h ([5]; time 4 hr, read-out: Plasma level of DIM): 2.6 ng/mL | AUC(0-inf) [6, 8]: 98.5 ng·h/mL | Cmax [6, 8]: 18.1 ng/mL | Tmax [6, 8]: 1.7 h | half-life [6, 8]: 2.2 h | concentration at 0 h ([6]; time 0 hour (baseline), 300 mg oral, read-out: averaged plasma level of DIM): 0 ng/mL | concentration at 1 h ([6]; time 1 hour, 300 mg oral, read-out: averaged plasma level of DIM): 17.8 ng/mL | concentration at 2 h ([6]; time 2 hour, 300 mg oral, read-out: averaged plasma level of DIM): 16.7 ng/mL | concentration at 3 h ([6]; time 3 hour, 300 mg oral, read-out: averaged plasma level of DIM): 10.6 ng/mL | concentration at 4 h ([6]; time 4 hour, 300 mg oral, read-out: averaged plasma level of DIM): 10 ng/mL | concentration at 6 h ([6]; time 6 hour, 300 mg oral, read-out: averaged plasma level of DIM): 5.8 ng/mL | AUC ([6]; time zero to infinity, 300 mg oral): 98.5 ng·h/mL | solubility ([7]; 0.01N HCl, simulated gastric fluid, aqueous acid environment of pH 2): 0.6 µg/mL (≈ 2.44 µM) | solubility ([7]; in water): 0.7 µg/mL (≈ 2.84 µM) | concentration of DIM in Octanol ([7]; Octanol, shake-flask method, HPLC): 2,300 μg/ml | maximum concentration of DIM in aqueous media ([7]; water, 0.01N HCl (pH 2.0) or phosphate buffer (pH 7.4), 37°C): 0.6 µg/mL

COc1cc2ncnc(Nc3ccc(F)c(Cl)c3)c2cc1OCCCN1CCOCC1 [Gefitinib, N-(3-chloro-4-fluoro-phenyl)-7-methoxy-6-(3-morpholin-4-ylpropoxy)quinazolin-4-amine]
log P [1]: 3.72 | Log P of 2nd API drug [1]: 3.72

CNC(=O)c1cccc2cc(Oc3ccnc4cc(OCC5(N)CC5)c(OC)cc34)ccc12 [Lucitanib, 6-[7-[(1-aminocyclopropyl)methoxy]-6-methoxyquinolin-4-yl]oxy-N-methylnaphthalene-1-carboxamide]
log P [1]: 3.81 | Log P of 2nd API drug [1]: 3.81

CCCCCCCCCCCCCCCC(=O)OC/C=C(C)/C=C/C=C(C)/C=C/C1=C(C)CCCC1(C)C [Retinyl palmitate, Retinyl Palmitate]
log P [1]: 5.68

COc1cc(C)c(/C=C/C(C)=C/C=C/C(C)=C/C(=O)O)c(C)c1C [acitretin]
log P [1]: 5.73

CC1=C(/C=C/C(C)=C/C=C/C(C)=C\C(=O)O)C(C)(C)CCC1 [isotretinoin, 13-cis retinoic acid]
log P [1]: 6.83

CC(C)=CCC/C(C)=C/CC/C(C)=C/CC/C(C)=C/CC1=C(C)C(=O)c2ccccc2C1=O [menaquinone-4]
log P [1]: 10-12

Vitamin D
log P [1]: 7.5

Reference: patent publication US10441569B2, “Self-emulsifying formulations of DIM-related indoles” (BioResponse, L.L.C., priority 2015, dated 2019)
